Measured values taken from ChEMBL document CHEMBL6103624, “Design, Synthesis, and Biological Evaluation of Marchantin C-NO Donor Hybrids for Overcoming Pgp-Mediated Drug Resistance by Targeting Lysosome” (J Med Chem, 2025).
Calls of active or inactive are those of the source. No cut-off for these calls is given here.

Key:
NCI/ADR-RES [1] = test: Antiproliferative activity against human MCF7ADR cells assessed as inhibition of cell growth incubated for 48 hrs by MTT assay; type: functional, cell-based
PC-3 = test: Antiproliferative activity against human PC-3 cells assessed as inhibition of cell growth incubated for 48 hrs by MTT assay; type: functional, cell-based; conditions: PC-3, 48 h
NCI/ADR-RES [2] = test: Induction of NO release in human MCF7ADR cells at 100 uM by Griess reagent assay; type: functional, cell-based; conditions: time <= 10.0 hrs
MCF7 [3] = test: Induction of NO release in human MCF7 cells at 100 uM measured for 5 hrs by Griess reagent assay; type: functional, cell-based
HepG2 = test: Antiproliferative activity against human HepG2 cells assessed as inhibition of cell growth incubated for 48 hrs by MTT assay; type: functional, cell-based; conditions: HepG2, 48 h
A549 = test: Antiproliferative activity against human A549 cells assessed as inhibition of cell growth incubated for 48 hrs by MTT assay; type: functional, cell-based; conditions: A549, 48 h
NCI/ADR-RES [4] = test: Induction of NO release in human MCF7ADR cells at 100 uM measured for 5 hrs by Griess reagent assay; type: functional, cell-based
MCF7 [5] = test: Antiproliferative activity against human MCF7 cells assessed as inhibition of cell growth incubated for 48 hrs by MTT assay; type: functional, cell-based; conditions: MCF7, 48 h
[6] = Selectivity index, ratio of IC50 for antiproliferative activity against human MCF7 cells assessed as inhibition of cell growth to IC50 for antiproliferative activity against human MCF7ADR cells assessed as inhibition of cell growth; type: functional
[7] = Cytotoxicity against human MCF-10A cells assessed as inhibition of cell growth incubated for 48 hrs by MTT assay; type: toxicity, cell-based
A549/TR = test: Antiproliferative activity against human A549/Taxol cells assessed as inhibition of cell growth incubated for 48 hrs by MTT assay; type: functional, cell-based
[8] = Cytotoxicity against human BEAS-2B cells assessed as inhibition of cell growth incubated for 48 hrs by MTT assay; type: toxicity, cell-based
[9] = Selectivity index, ratio of IC50 for antiproliferative activity against human A549 cells assessed as inhibition of cell growth to IC50 for antiproliferative activity against human A549/Taxol cells assessed as inhibition of cell growth; type: functional

SMILES | IC50 (NCI/ADR-RES [1]) [µM] | IC50 (PC-3) [µM] | Activity (NCI/ADR-RES [2]) | Activity (MCF7 [3]) | IC50 (HepG2) [µM] | IC50 (A549) [µM] | Activity (NCI/ADR-RES [4]) | IC50 (MCF7 [5]) [µM] | Ratio IC50 [6] | IC50 at 48 h [7] [µM] | IC50 (A549/TR) [µM] | IC50 at 48 h [8] [µM] | Ratio IC50 [9]
O=C(/N=c1\c[n+](-c2ccccc2)[n-]o1)Oc1cccc2c1Oc1cccc(c1)CCc1ccc(O)c(c1)Oc1ccc(cc1)CC2 | > 20 | > 20 | Time-dependent-effect | inactive | > 20 | > 40 | inactive | > 20 | – | – | – | – | –
O=[N+]([O-])c1ccc(O/N=[N+](\[O-])N2CCN(Cc3ccc4c(c3O)Oc3cccc(c3)CCc3ccc(O)c(c3)Oc3ccc(cc3)CC4)CC2)c([N+](=O)[O-])c1 | > 3 | > 20 | Time-dependent-effect | – | > 20 | > 40 | – | > 20 | <7 | – | – | – | –
O=S(=O)(c1ccccc1)c1c(OCCOCCOc2cccc3c2Oc2cccc(c2)CCc2ccc(O)c(c2)Oc2ccc(cc2)CC3)no[n+]1[O-] | 1.01 | 4.41 | – | – | > 20 | > 40 | – | 15.2 | 15 | < 2.5 | 12.1 | 5.14 | >3
